Literature values, collected in US20250295562A1, “Formulation for treatment of melasma, hyperpigmentation, and dark spots” (priority 2024, published 2025).

Key:
[1] = clinical

| SMILES | anti-acne effect [1] | anticollagenase inhibitory activity (collagenase) | bactericidal activity (bacteria) |
| --- | --- | --- | --- |
| CCCCC/C=C\C/C=C\CCCCCCCC(=O)OCC [Ethyl Linoleate, Ethyl linoleate] | effective anti-acne agent | – | – |
| CC(C)=CCC1=C(O)C(C(=O)CC(C)C)=C(O)C(CC=C(C)C)(CC=C(C)C)C1=O [lupulone] | – | moderate to strong | exhibited bactericidal activity |
| COc1cc(O)c(CC=C(C)C)c(O)c1C(=O)/C=C/c1ccc(O)cc1 [xanthohumol] | – | moderate to strong | exhibited bactericidal activity |
